Results as given in a melting point compilation (Tetko et al.; mined from patent text by program, amines drawn as free bases though some values may be those of a salt).
Residues, ends and D or L forms follow the SMILES beside them. *: point of attachment. Boc = CC(C)(C)OC(=O)*; OBn = c1ccc(CO*)cc1; βAla = NCCC(=O)O

Row | Compound | melting point [°C]
1 | N#Cc1ccccc1C#CCOCCn1cnc2c(N)nc3ccccc3c21 | 180 to 183
2 | CCCCCCCCCCCCCCN(C(=O)CCCCCCCCCCC)C1(N)OC(CO)C(O)C(O)C1C(=O)C(N)C(=O)C(N)CO (stereo not drawn) | 141 to 143
3 | O=C(O)c1cc(Cl)n2cnnc2c1 | 249 to 251
4 | CC1CCC(c2ccc(OCC(=O)O)c(Cl)c2Cl)=CC1=O (stereo not drawn) | 183 to 185
5 | O=c1c2ccccc2c(Br)c(Br)c2ccc(Br)cc12 | 173 to 175
6 | CCC1N=C(c2ccccc2Cl)c2cc(CCC(=O)N3CCOCC3)sc2-n2c(C)nnc21 (stereo not drawn) | 145 to 147
7 | O=C(O)C1Cc2ccccc2N1C(=O)CCSSCCC(=O)N1c2ccccc2CC1C(=O)O (stereo not drawn) | 213 to 216
8 | CN(C)c1cc(CC(C#N)=CNc2ccccc2)cc(N(C)C)c1N(C)C | 179 to 181
9 | Cc1ccc2c(c1)S(=O)(=O)NCN2CCF | 88 to 90
10 | O=C(O)c1ccc(=O)n(CCNC(=O)c2cccnc2)c1 | > 295
11 | O=C1NCN(c2ccccc2)C12CCN(CC1=Cc3ccccc3CC1)CC2 | 205 to 206
12 | O=C(NCc1cccc(C(F)(F)F)c1)c1ccc2n1Cc1ccccc1N(C(=O)COc1ccc(Cl)cc1)C2 | 143 to 145
13 | CC(C)N1C(=O)NC(c2cccnc2)c2cc3c(cc21)OCO3 (stereo not drawn) | 172 to 174
14 | CC(C)C[C@H](NC(=O)OCc1ccccc1)C(=O)N[C@H]1CCOC1=O | 130 to 131
15 | CC(=O)OCC1OC(n2c(Cl)nc3cc(Cl)c(Cl)cc32)C(O)C1O (stereo not drawn) | 82 to 87
16 | COC(=O)COc1ccc(-c2ccc(C(=O)O)cc2)cc1-c1ccc2c(c1)C(C)(C)CCC2(C)C | 104 to 106
17 | O=C(NCCCO)c1cccc(Nc2nccc(-c3ccnc(NCCCO)c3)n2)c1 | 153 to 154
18 | CCOC(=O)C1COc2cc(C=O)c(Cl)c(Cl)c2O1 (stereo not drawn) | 101 to 102
19 | CN(C)C(=O)NNCC1CC2c3cccc4[nH]cc(c34)CC2N(C)C1 (stereo not drawn) | 205 to 206
20 | CCOC(=O)c1c(C)nc(-c2ccccc2)nc1-c1cccc(C(F)(F)F)c1 | 59 to 60
21 | Clc1ccc(OC(C(OCc2ccc(Cl)cc2Cl)c2ccc(Cl)cc2Cl)n2cncn2)cc1 (stereo not drawn) | 132 to 135
22 | Nc1c(F)c(N2CCC(=NO)CC2)c(F)c2c1c(=O)c(C(=O)O)cn2C1CC1 | 298 to 300
23 | Cc1c(-c2ccccc2)sc2nc(NCCNC(=O)CCN3CCN(C)CC3)[nH]c(=O)c12 | 235 to 245
24 | O=C(O)CCCc1cc2nc(Cl)ccc2n1S(=O)(=O)c1cccc(Cl)c1 | 174
25 | CC(C)(C)OC(=O)NCCC(=O)NC(CC(=O)OCc1ccccc1)C(=O)NC(Cc1ccccc1)C(=O)OCc1ccccc1 (stereo not drawn) ({Boc-βAla}-Asp(OBn)-Phe-OBn; configuration not given here) | 124 to 125

Row | Compound | melting point [°C]
26 | O=C(O)CCCCCCCNS(=O)(=O)c1ccccc1 | 82 to 84
27 | COc1cc(N2CCC(N3CCN(C)CC3)CC2)ccc1Nc1ncc2ccc(-c3cccc(S(=O)(=O)NC(C)(C)C)c3)n2n1 | 214 to 216
28 | Cc1cccc(-n2nc(C)cc2-c2ccnc(C#N)c2)c1 | 128 to 130
29 | COCC(O)Cn1ncc([N+](=O)[O-])n1 (stereo not drawn) | 58.2 to 59
30 | CS(=O)(=O)c1ccc(C(Br)C(=O)c2ccc(F)cc2)cc1 (stereo not drawn) | 140 to 141
31 | O=c1ccc(-c2ccc(Cl)c(Cl)c2)nn1CN1CCN(Cn2nc(-c3ccc(Cl)c(Cl)c3)ccc2=O)CC1 | 234 to 236
32 | O=C1CCCCc2cc(OCc3ccccc3)c(O)cc21 | 127 to 128
33 | O=C(CCCl)Nc1ccc(F)c(Cl)c1 | 94
34 | CC(C)c1cccc(C(C)C)c1NC(=O)CNC(c1cccc(C(F)(F)F)c1)c1cccc(C(F)(F)F)c1 | 144 to 145
35 | CC(C)c1cc(S(N)(=O)=O)c(C(C)C)cc1C(=O)O | 225 to 231
36 | O=C1NCN(c2ccccc2)C12CCN(CCCn1c(=O)[nH]c3cccc(Cl)c31)CC2 | 258
37 | COC(=O)c1cc(Cl)c(Oc2ccc(OC)c(Cc3ccc(F)cc3)c2)c(Cl)c1 | 108 to 110
38 | O=P(c1ccccc1)(c1ccccc1)c1ccccc1C1OCCO1 | 161 to 162
39 | O=C(O)CCC(CCCCNS(=O)(=O)c1ccc(Cl)cc1)CCCc1cccnc1 (stereo not drawn) | 116 to 118
40 | COc1ccccc1C=Cc1nc2c(c(=O)n(C)c(=O)n2C)n1C | 238 to 240
41 | COc1cc(C(=O)O)ccc1OCc1cccc(OCc2ccc3ccccc3n2)c1 | 188 to 190
42 | OCC1CCCN(c2nc(-c3ccccc3)nc3ccccc23)C1 (stereo not drawn) | 116 to 118
43 | COCC1CN(c2ccc3ccc(N)cc3c2)C(=O)O1 (stereo not drawn) | 98 to 99
44 | Cc1ccc(-c2ccc(S(C)(=O)=O)cc2)n1-c1ccc(-c2ccsc2)cc1 | 187 to 188
45 | Clc1ccc2nc(CN3CCN(c4ccccc4)CC3)[nH]c2c1 | 198 to 201
46 | CCCC(=O)c1c(CC)nc2c(-c3ccc(Cl)cc3Cl)nccn12 | 159 to 160
47 | N#Cc1cccnc1-n1cc(-c2ccc(Oc3ccccc3)cc2)c2c(N)ncnc21 | 242
48 | CCNc1nc2ccc(CCc3ccc(CN(C)C)o3)cc2o1 | 72 to 73
49 | CCOC(=O)c1[nH]c2c(c1O)CCCC2 | 94 to 95
50 | COc1cc(I)cc(OC)c1 | 73 to 74

Row | Compound | melting point [°C]
51 | C#CCCC(O)=C(C#N)C(=O)Nc1ccc(C(F)(F)F)cc1 | 172
52 | CCCN(CCSc1nc(-c2ccccc2)c(-c2ccccc2)[nH]1)C(=O)Nc1ccc(F)cc1F | 189 to 190
53 | O=S(=O)(c1ccccc1)n1ccc2cc3c(cc21)OCO3 | 142 to 145
54 | FC(F)(F)c1cccc(-c2ccnc3c(Br)cnn23)c1 | 138 to 140
55 | OCc1cccc(-c2ccc3nc(-c4ccc(Cl)cc4)cn3c2)c1F | 200 to 202
56 | Cc1ccc(CNC(=S)NCCO)c(C)c1 | 101 to 103
57 | COc1ccc(NC2C3CCC(CC3=O)C2(C)c2ccccc2)cc1 (stereo not drawn) | 138 to 139
58 | Cc1nc(-c2ccccc2Cl)n2c1nnc1ccc(N3CCCCC3)cc12 | 207 to 210
59 | CCOC(=O)NC(=S)CNc1ccc(C(=O)OC)c(S(=O)(=O)NC(C)(C)C)c1 | 110
60 | CC(=O)c1cnc2c(c1)oc(=O)n2CCc1ccncc1 | 148 to 150
61 | CC1CC(=Cc2ccccc2O)C(=O)O1 (stereo not drawn) | 112 to 114
62 | COC(=O)C(C)(C)c1ccc(C(=O)Nc2cn3cc(-c4ccsc4)ccc3n2)cc1 | 200 to 201
63 | CN(C)CCCC(N)=S | 77
64 | CCn1c(=O)c2c(nc(/C=C/c3cccc(OC)c3OC(C)=O)n2C)n(CC)c1=O | 202 to 203
65 | CCC12CCC3=C(CCc4cc(O)ccc43)C1CCC2O (stereo not drawn) | 234 to 238
66 | O=C(O)c1cc(-c2ccc(Br)cc2)nc(-c2ccc(Br)cc2)c1 | 292 to 294
67 | Nc1cccc(-c2ccc(CCN3CCN(CCc4ccccc4)CC3)cc2)n1 | 111 to 113
68 | Cc1ccc(OC(C)C)c(-c2cc(=O)c3cc(C(=O)O)ccc3o2)c1 | 209 to 210
69 | Nc1nc(-c2ccccc2Cl)nc(N2CCCCC2)n1 | 184 to 186
70 | CCN1CCCC1c1cccc(OC(=O)NC)c1 (stereo not drawn) | 67 to 69
71 | CN1C(C)(C)CC(N(CCCCCCN(C2CC(C)(C)N(C)C(C)(C)C2)P2OCC(C)(C)CO2)P2OCC(C)(C)CO2)CC1(C)C | 103
72 | Cc1nc(C#N)ccc1OC1SCC(O)C(O)C1O (stereo not drawn) | 193 to 195
73 | Cc1ccc(-c2occc2C(N)=O)cc1 | 174
74 | CCN(CC)CCn1c(=O)c2cc(OC)c(OC)cc2c2cnc3cc4c(cc3c21)OCO4 | 159 to 160
75 | OC(c1ccccc1)c1ccc2cccnc2c1 (stereo not drawn) | 118

Row | Compound | melting point [°C]
76 | CCOC(=O)C(=O)c1ccc(OCCOc2ccc3ccccc3c2)s1 | 98 to 100
77 | C=CS(=O)(=O)Nc1cccc(Nc2nc(N[C@H](C)C(C)(C)C)c3nc[nH]c3n2)c1 | 133 to 136
78 | COc1cc(OC)nc(NC(=O)NS(=O)(=O)c2c([N+](=O)[O-])ccc3c2CCC3)n1 | 162 to 172
79 | CC(C)Cn1c(CNC(=O)OC(C)(C)C)c(-c2ccccc2)c2cc(/C=C/C(=O)O)ccc2c1=O | 172 to 173
80 | C[C@H](NC(=O)c1ccc(N)cc1F)C(=O)O | 244 to 248
81 | Nc1cc(Cl)c(Cc2ccc(C(=O)c3cnc(Cl)c(Cl)c3)cc2)c(Cl)c1 | 140 to 145
82 | COc1ccccc1CN[C@H]1CCCN[C@H]1c1ccoc1 (relative stereo) | > 247
83 | COc1cc2c(cc1OS(=O)(=O)C(F)(F)F)[nH]c1cc(-c3ccccc3Cl)c3c(c12)C(=O)NC3=O | 248 to 252
84 | O=C(CC1CCN(CCn2c(=O)[nH]c3ccccc32)CC1)c1ccc(F)cc1 | 181
85 | CC(=O)O[C@]1(C)CC[C@@H]2C[C@H]1OO[C@@]2(C)CS(=O)(=O)c1ccccc1 | 98 to 99
86 | O=C(Cc1ccccc1)N1CCC2(c3cccc(O)c3)CCCC2C1 (stereo not drawn) | 135 to 137
87 | Cc1noc(NS(=O)(=O)c2sccc2Cc2ccccc2)c1Br | 180 to 183
88 | CC(C#N)c1ccc2nc(-c3ccccc3)ccc2c1 (stereo not drawn) | 126
89 | N#Cc1c[nH]cc1-c1ccccc1C(F)(F)F | 105 to 107
90 | C=C(C)Cc1cc(C=O)cc(OCC)c1O | 85 to 86
91 | N#Cc1ccc(N2CCC(F)C2)c2ccsc12 (stereo not drawn) | 151 to 152
92 | Cc1[nH]c(=S)n(Nc2cccc(Cl)c2)c1-c1cccc(Br)c1 | 196
93 | CCOc1cc(OCCCc2cn(-c3ccccn3)nc2OCC)ccc1CCC(=O)O | 110 to 111
94 | Cc1cccc(NC(=O)NCC(=O)N2[C@@H](C(=O)OC(C)(C)C)C[C@H](CO)[C@H]2c2ccccc2)c1 (racemic) | 168
95 | Cc1ccccc1[C@@H](CCC(=O)O)Oc1cc(OCc2cccnc2)ccc1[N+](=O)[O-] | 117 to 119
96 | Cc1csc(C(O)(c2nccs2)C(F)(F)F)n1 (stereo not drawn) | 89 to 90
97 | Nc1nc2ccccc2c2c1ncn2CCCCNC(=O)COc1ccc(C(=O)c2ccccc2)cc1 | 73 to 98
98 | CC(C)N1CC(=O)N(c2ccc(O)cc2F)C1=O | 190 to 192
